Assay results as given in patent publication US6458788B1, “4-hydroxycinnoline-3-carboxyamides as antiviral agents” (Pharmacia & Upjohn Company, priority 2000, dated 2002).

Tests used:
HCMV polymerase = target: T1, HCMV polymerase (Human cytomegalovirus, UniProt P08546); assay: HCMV polymerase scintillation proximity assay (modified version); assay type: biochemical; settings: at a concentration of 20 μM; read-out: percent inhibition of the viral polymerase, HCMV
T1 construct: made in house; host or cells: recombinant baculovirus-infected SF-9 cells
T1 sequence (P08546 whole entry): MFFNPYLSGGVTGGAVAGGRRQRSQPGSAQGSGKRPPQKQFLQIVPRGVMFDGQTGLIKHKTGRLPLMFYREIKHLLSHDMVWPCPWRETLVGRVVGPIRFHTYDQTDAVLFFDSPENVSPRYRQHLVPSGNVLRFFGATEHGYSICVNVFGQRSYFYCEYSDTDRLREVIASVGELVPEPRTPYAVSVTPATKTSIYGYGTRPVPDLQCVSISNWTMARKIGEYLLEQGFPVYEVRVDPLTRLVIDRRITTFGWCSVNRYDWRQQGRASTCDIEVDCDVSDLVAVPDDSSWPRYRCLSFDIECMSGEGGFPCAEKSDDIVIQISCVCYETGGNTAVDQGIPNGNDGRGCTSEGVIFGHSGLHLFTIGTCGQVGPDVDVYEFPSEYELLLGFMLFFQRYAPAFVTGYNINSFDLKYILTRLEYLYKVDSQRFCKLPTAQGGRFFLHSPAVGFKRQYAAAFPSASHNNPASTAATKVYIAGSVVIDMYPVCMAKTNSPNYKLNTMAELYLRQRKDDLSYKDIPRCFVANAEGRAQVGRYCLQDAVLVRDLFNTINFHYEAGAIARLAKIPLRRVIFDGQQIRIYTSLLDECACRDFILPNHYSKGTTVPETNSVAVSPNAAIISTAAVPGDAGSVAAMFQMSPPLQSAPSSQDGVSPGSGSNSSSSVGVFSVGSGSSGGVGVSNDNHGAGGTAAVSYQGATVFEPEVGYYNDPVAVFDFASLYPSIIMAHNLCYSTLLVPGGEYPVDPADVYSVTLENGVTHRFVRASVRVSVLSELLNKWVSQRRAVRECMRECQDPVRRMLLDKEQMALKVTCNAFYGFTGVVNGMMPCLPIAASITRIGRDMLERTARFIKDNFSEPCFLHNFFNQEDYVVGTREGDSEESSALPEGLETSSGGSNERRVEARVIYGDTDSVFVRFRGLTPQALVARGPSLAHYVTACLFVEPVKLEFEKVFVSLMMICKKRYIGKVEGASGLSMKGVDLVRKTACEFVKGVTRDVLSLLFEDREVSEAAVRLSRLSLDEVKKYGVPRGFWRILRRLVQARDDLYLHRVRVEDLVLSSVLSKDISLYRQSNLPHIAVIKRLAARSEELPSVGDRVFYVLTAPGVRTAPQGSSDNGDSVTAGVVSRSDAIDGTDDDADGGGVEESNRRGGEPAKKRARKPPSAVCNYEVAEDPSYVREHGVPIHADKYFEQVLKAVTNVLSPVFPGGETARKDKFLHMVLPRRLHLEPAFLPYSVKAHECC
Experimental: The HCMV polymerase assay is performed using a scintillation proximity assay (SPA) as described in several references, such as N. D. Cook, et al., Pharmaceutical Manufacturing International, pages 49-53 (1992); K. Takeuchi, Laboratory Practice, September issue (1992); U.S. Pat. No. 4,568,649 (1986); which are incorporated by reference herein. Reactions are performed in 96-well plates. The assay is conducted in 100 μl volume with 5.4 mM HEPES (pH 7.5), 11.7 mM KCl, 4.5 mM MgCl2, 0.36 mg/ml BSA, and 90 nM ^3H-dTTP. Assays are run with and without CHAPS, (3-[(3-cholamidopropyl)-dimethylammonio]-1-propane-sulfonate) at a final concentration of 2 mM. HCMV polymerase is diluted in enzyme dilution buffer containing 50% glycerol, 250 mM NaCl, 10 mM HEPES (pH 7.5), 100 μg/ml BSA, and 0.01% sodium azide. The HCMV polymerase, which is expressed in recombinant baculovirus-infected SF-9 cells and purified according to literature procedures, is added at 10% (or 10 μl) of the final reaction volume, i.e., 100 μl. Compounds are diluted in 50% DMSO and 10 μl are added to each well. Control wells contain an equivalent concentration of DMSO. Unless noted otherwise, reactions are initiated via the addition of 6 nM biotinylated poly(dA)-oligo(dT) template/primer to reaction mixtures containing the enzyme, substrate, and compounds of interest. Plates are incubated in a 25° C. or 37° C. H2O bath and terminated via the addition of 40 μl/reaction of 0.5 M EDTA (pH 8) per well. Reactions are terminated within the time-frame during which substrate incorporation is linear and varied depending upon the enzyme and conditions used, i.e., 30 min. for HCMV polymerase. Ten μl of streptavidin-SPA beads (20 mg/ml in PBS/10% glycerol) are added following termination of the reaction. Plates are incubated 10 min. at 37° C., then equilibrated to room temperature, and counted on a Packard Topcount. Linear regressions are performed and IC50's are calculated using computer software.
A modified version of the above HCMV polymerase assay is performed as described above, but with the following changes: Compounds are diluted in 100% DMSO until final dilution into assay buffer. In the previous assay, compounds are diluted in 50% DMSO. 4.5 mM dithiotherotol (DTT) is added to the polymerase buffer. […] All results are listed as the percent inhibition of the viral polymerase at a concentration of 20 μM. In Table 1, the term “nd” refers to activity data not determined.

VZV polymerase = VZV polymerase (Varicella-zoster virus, UniProt P09252); assay: VZV polymerase assay (Table 1, viral polymerase inhibition); assay type: biochemical; settings: at a concentration of 20 μM; read-out: percent inhibition of the viral polymerase, VZV
Sequence of VZV polymerase (P09252 whole entry): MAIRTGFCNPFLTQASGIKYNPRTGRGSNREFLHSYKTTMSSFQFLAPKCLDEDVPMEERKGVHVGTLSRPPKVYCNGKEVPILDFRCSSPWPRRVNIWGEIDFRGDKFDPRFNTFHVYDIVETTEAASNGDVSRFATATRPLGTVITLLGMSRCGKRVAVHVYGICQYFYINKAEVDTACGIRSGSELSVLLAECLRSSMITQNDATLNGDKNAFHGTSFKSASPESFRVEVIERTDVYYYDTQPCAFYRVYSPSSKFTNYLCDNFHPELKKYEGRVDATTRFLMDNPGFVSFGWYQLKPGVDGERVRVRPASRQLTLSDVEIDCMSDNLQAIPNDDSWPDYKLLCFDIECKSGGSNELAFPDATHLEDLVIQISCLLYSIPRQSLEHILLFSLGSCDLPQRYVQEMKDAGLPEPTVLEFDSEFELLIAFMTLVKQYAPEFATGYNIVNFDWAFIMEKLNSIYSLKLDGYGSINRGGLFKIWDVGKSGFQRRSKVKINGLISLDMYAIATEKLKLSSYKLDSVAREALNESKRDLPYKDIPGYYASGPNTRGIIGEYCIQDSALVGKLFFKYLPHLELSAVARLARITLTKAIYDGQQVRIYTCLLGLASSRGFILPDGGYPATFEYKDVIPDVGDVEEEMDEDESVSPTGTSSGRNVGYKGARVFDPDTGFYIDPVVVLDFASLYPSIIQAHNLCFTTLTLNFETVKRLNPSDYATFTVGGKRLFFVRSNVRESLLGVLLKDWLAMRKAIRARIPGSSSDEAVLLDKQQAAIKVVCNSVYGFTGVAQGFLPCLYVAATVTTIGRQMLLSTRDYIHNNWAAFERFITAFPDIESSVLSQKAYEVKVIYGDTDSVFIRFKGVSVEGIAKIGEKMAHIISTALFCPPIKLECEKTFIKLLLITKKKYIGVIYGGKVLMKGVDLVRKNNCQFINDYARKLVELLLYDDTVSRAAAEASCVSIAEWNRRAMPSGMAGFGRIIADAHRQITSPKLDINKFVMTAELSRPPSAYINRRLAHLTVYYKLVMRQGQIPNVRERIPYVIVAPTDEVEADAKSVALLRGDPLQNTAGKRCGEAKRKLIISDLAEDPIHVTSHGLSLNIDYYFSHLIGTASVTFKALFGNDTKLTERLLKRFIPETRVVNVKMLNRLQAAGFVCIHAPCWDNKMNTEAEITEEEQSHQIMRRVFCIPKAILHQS
Experimental: The HCMV polymerase assay is performed using a scintillation proximity assay (SPA) as described in several references, such as N. D. Cook, et al., Pharmaceutical Manufacturing International, pages 49-53 (1992); K. Takeuchi, Laboratory Practice, September issue (1992); U.S. Pat. No. 4,568,649 (1986); which are incorporated by reference herein. Reactions are performed in 96-well plates. The assay is conducted in 100 μl volume with 5.4 mM HEPES (pH 7.5), 11.7 mM KCl, 4.5 mM MgCl2, 0.36 mg/ml BSA, and 90 nM ^3H-dTTP. Assays are run with and without CHAPS, (3-[(3-cholamidopropyl)-dimethylammonio]-1-propane-sulfonate) at a final concentration of 2 mM. HCMV polymerase is diluted in enzyme dilution buffer containing 50% glycerol, 250 mM NaCl, 10 mM HEPES (pH 7.5), 100 μg/ml BSA, and 0.01% sodium azide. […] Plates are incubated 10 min. at 37° C., then equilibrated to room temperature, and counted on a Packard Topcount. Linear regressions are performed and IC50's are calculated using computer software.
A modified version of the above HCMV polymerase assay is performed as described above, but with the following changes: Compounds are diluted in 100% DMSO until final dilution into assay buffer. […] In Table 1, the term “nd” refers to activity data not determined.

HSV polymerase = HSV polymerase (Human herpesvirus 1, UniProt P04293); assay: HSV polymerase assay (Table 1, viral polymerase inhibition); assay type: biochemical; settings: at a concentration of 20 μM; read-out: percent inhibition of the viral polymerase, HSV
Sequence of HSV polymerase (P04293 whole entry): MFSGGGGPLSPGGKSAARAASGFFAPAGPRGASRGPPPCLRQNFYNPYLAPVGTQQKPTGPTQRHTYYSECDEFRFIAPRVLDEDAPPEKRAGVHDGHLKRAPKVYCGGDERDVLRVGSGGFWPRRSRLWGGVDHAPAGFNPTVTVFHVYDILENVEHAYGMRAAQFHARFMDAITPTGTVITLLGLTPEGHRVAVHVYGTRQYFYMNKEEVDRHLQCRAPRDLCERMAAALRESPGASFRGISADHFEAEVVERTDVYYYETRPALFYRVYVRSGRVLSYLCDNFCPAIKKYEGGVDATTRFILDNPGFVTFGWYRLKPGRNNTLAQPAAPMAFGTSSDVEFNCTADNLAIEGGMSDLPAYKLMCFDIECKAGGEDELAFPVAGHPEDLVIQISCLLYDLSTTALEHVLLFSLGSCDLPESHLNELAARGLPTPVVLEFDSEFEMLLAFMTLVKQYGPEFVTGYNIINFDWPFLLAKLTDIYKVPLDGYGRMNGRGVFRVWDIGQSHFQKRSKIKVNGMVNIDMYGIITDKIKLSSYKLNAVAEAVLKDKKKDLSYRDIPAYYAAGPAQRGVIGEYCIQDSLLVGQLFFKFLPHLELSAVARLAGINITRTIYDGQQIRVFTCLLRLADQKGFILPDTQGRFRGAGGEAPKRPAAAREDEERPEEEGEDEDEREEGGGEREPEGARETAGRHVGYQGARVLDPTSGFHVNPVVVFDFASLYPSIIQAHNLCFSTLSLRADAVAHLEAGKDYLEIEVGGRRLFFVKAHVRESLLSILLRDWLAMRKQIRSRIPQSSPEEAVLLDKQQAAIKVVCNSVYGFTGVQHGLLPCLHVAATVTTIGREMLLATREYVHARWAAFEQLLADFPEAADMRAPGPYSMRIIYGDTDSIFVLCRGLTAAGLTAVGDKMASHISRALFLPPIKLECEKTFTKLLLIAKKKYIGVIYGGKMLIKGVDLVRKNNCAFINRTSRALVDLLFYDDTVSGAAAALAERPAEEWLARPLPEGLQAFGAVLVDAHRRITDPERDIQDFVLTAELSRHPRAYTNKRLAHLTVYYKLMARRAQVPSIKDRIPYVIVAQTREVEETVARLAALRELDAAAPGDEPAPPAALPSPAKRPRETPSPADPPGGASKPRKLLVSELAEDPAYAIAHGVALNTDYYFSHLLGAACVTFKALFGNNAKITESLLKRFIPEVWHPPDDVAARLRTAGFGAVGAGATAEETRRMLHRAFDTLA

melting point	inhibition at 20 µM (HCMV polymerase) [%]	inhibition at 20 µM (VZV polymerase) [%]	inhibition at 20 µM (HSV polymerase) [%]	Structure (SMILES)
296 to 298 °C	51			O=C(NCc1ccc(Cl)cc1)c1nnc2ccc(CO)cc2c1O [Example 4, N-(4-chlorobenzyl)-4-hydroxy-6-(hydroxymethyl)-3-cinnolinecarboxamide]
269 to 271 °C	90	10.1	20.8	O=C(NCc1ccc(Cl)cc1)c1n[nH]c2ccccc2c1=O [Comp. 1, N-(4-chlorobenzyl)-4-oxo-1,4-dihydro-3-cinnolinecarboxamide]

Further lines, the molecule ahead of its results:

Structure (SMILES)	melting point	inhibition at 20 µM (HCMV polymerase) [%]	inhibition at 20 µM (VZV polymerase) [%]	inhibition at 20 µM (HSV polymerase) [%]
COC(=O)c1ccc2nnc(C(=O)NCc3ccc(Cl)cc3)c(O)c2c1 [Example 3, Methyl 3-{[(4-chlorobenzyl)amino]carbonyl]-4-hydroxy-6-cinnolinecarboxylate]	308 to 310 °C	50		
O=C(NCc1ccc(Cl)cc1)c1nnc2ccc(CN3CCOCC3)cc2c1O [Example 5, N-(4-chlorobenzyl)-4-hydroxy-6-(morpholinylmethyl)-3-cinnolinecarboxylate]	277 to 280 °C (dec.)			
O=C(NCc1ccc(Cl)cc1)c1nnc2ccc(I)cc2c1O [Comp. 2, N-(4-chlorobenzyl)-4-hydroxy-6-iodo-3-cinnolinecarboxamide]	307 to 308 °C	> 100		
